Bridge positions count the residues as written; N and C are the ends. Square brackets hold non-standard residues; d marks the D form. Peptide text beside a SMILES is read from it. hSer = N[C@@H](CCO)C(=O)O
Tests used:
[1] = target: T1, recombinant β-galactosidase (Escherichia coli, UniProt P00722); assay: Inhibition of purified β-galactosidase (ONPG hydrolysis); format: biochemical
T1 construct: gift from Dr. Donald P. Satchell, University of California, Irvine, Department of Pathology
Method: Dose-dependent rates of ONPG hydrolysis were determined using 10 nM of purified β-galactosidase.
The effect of each peptide on β-galactosidase-dependent ONPG hydrolysis was determined by incubating 0-4 μg/ml of each peptide with recombinant β-galactosidase (a gift from Dr. Donald P. Satchell, University of California, Irvine, Department of Pathology) and 3 mM ONPG as described above.

C. albicans 16820 = assay: Cell-suspension microbicidal assay (MMC); format: cell-based, Candida albicans; details: for MMC, C. albicans: lowest concentration that reduced cell viability by 99.9%, 10 mM PIPES, 5 mM glucose, pH 7.4, 2 h 37° C.
How it was run: (§1)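 Log-phase microbes (2×10^6 CFU/ml) exposed to two-fold peptide dilutions (0.062-8.0 μg/ml) in 10 mM PIPES, 5 mM glucose, pH 7.4, 2 h at 37 °C, then diluted 1:10 to 1:10^6 in broth and grown 24-48 h. MMC is the lowest concentration giving ≥99.9% killing (no pellet at 1:10^3).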

[2] = tested on: S. aureus 502a, E. coli ML35, and C. albicans 16820; assay: Cell-suspension microbicidal assay, statements across the test organisms (lowest MMC, overall ranges); format: cell-based; details: for M: peptide concentration that kill 99.9% of either S. aureus, E. coli, or C. albicans, lowest MMC value
How it was run: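 Log-phase organisms (2×10^6 CFU/ml) were exposed for 2 h at 37° C. to peptide (0.062–8.0 μg/ml final) in 10 mM PIPES/5 mM glucose, pH 7.4, then serially diluted in broth and grown 24–48 h. MMC was defined as ≥99.9% killing (no pellet at 1:10^3). SI was calculated as concentration giving 3% hemolysis in PBS divided by lowest MMC.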

S. aureus 502a [3] = assay: Cell-suspension microbicidal assay (MMC); format: cell-based, Staphylococcus aureus; details: for MMC, S. aureus: lowest concentration that reduced cell viability by 99.9%, 10 mM PIPES, 5 mM glucose, pH 7.4, 2 h 37° C.
How it was run: as §1

E. coli ML35 [4] = assay: Membrane permeabilization assay (ONPG hydrolysis); format: cell-based, Escherichia coli; details: for ONPG hydrolysis: rates at 1 μg/ml concentration of each peptide
How it was run: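 ONPG hydrolysis by log-phase E. coli ML35 (1×10^6 CFU/ml) in 10 mM PIPES pH 7.4 with 3 mM ONPG, peptides at 0-8.0 μg/ml final; A405 followed for 60 min. Control: 0-4 μg/ml peptide incubated with recombinant β-galactosidase and 3 mM ONPG.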

E. coli ML35 [5] = assay: Cell-suspension microbicidal assay (MMC); format: cell-based, Escherichia coli; details: for MMC, E. coli: lowest concentration that reduced cell viability by 99.9%, 10 mM PIPES, 5 mM glucose, pH 7.4, 2 h 37° C.
How it was run: as §1

E. coli ML35 [6] = assay: Bactericidal activity in divalent cations (CaCl2, MgCl2); format: cell-based, Escherichia coli
Method: (§2) To determine the effects of serum, salt, calcium chloride and magnesium chloride on microbicidal activities, peptide activities were determined in assays containing varying ionic strength, divalent cations, and serum. The effect of serum on staphylocidal activity of each peptide was determined by incubating 1×10^6 CFU/ml of S. aureus 502a with increasing peptide concentrations (0.5-4 μg/ml) in 10 mM PIPES, pH 7.4, containing 10% normal human serum for 2 h at 37° C. The effect of sodium chloride on staphylocidal activities was assessed with 5 μg/ml of each peptide in 10 mM PIPES, pH 7.4, containing varying concentrations of sodium chloride (0-160 mM). Effects of divalent cations, CaCl2, or MgCl2 (0-5.6 mM) were assessed in microbicidal assays against E. coli ML35. Bactericidal activities were determined by colony counting (see Example II), and microbicidal potencies were expressed as percent killing as follows:
(§3) [formula] where A=surviving bacteria (CFU/ml) after initial incubation with each peptide in buffer containing serum, salt, or divalent cations and Ao=bacterial CFU/ml in the “no-peptide” controls.

S. aureus 502a [7] = format: cell-based, Staphylococcus aureus; details: 502a
Method: Dose-dependent staphylocidal activity of each peptide was determined in assays containing 10% normal human serum. Percentages of killing are relative to activities of peptide-containing incubations in which serum was omitted.
as §2, §3

[8] = tested on: S. aureus 502a, E. coli ML35, C. albicans 16820, and C. neoformans 271a; assay: Agar diffusion assay, statements across the test organisms; format: cell-based; details: against E. coli, FIG. 18A-D
Method: Briefly, 10-μl wells were bored in a 9-cm^2 plate of agarose, buffered with 10 mM 1,4-piperazinebis(ethanesulfonic acid) (PIPES), pH 7.4, containing 5 mM glucose, and seeded with 1×10^6 mid-log phase cells. Five-μl aliquots of peptides, dissolved in 0.01% HOAc at 10-300 μg/ml, were added to each well. After incubation at 37° C. for 2 h, the seeded agar was overlaid with molten agarose containing 6% trypticase soy broth (for bacteria) or Sabouraud dextrose broth (for fungi). Plates were incubated at 37° C. for 18-24 h, and antimicrobial activity was determined by measuring the diameter of clearing around each well.

S. aureus 502a [9] = format: cell-based, Staphylococcus aureus; details: physiologic salt / various concentrations of salt; FIG. 6
Method: The activity of each peptide (5 μg/ml) was determined in assays containing increasing concentrations of sodium chloride. Staphylocidal activities were expressed as percentages of killing obtained in the absence of additional NaCl.
as §2, §3

T1 sequence (P00722 2-1024): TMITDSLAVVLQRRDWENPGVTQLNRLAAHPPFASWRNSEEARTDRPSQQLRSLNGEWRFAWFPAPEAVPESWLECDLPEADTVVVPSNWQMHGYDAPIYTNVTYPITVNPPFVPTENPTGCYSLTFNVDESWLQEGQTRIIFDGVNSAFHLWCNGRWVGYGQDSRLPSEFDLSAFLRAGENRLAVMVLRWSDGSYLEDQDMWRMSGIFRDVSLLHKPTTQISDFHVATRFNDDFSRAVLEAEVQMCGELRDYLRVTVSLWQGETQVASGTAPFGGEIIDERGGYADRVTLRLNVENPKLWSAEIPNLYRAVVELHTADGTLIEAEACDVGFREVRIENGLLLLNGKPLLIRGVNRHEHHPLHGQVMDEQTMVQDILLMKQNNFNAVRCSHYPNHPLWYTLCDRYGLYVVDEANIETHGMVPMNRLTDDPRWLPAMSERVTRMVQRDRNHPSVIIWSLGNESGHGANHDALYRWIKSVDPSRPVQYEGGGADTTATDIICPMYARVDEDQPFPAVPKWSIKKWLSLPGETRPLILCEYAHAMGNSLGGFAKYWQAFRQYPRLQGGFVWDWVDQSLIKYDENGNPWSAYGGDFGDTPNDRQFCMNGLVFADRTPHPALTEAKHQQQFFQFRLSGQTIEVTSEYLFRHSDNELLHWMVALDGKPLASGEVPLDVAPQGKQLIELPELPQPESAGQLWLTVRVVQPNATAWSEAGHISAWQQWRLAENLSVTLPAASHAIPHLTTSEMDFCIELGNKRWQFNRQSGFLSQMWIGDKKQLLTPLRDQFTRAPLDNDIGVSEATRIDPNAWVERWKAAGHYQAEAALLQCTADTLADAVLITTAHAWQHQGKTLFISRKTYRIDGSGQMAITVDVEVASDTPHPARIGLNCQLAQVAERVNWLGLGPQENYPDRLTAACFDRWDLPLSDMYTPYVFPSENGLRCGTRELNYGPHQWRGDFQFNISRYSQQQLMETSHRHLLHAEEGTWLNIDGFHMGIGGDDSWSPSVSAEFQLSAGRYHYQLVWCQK

Compound | MMC, C. albicans (C. albicans 16820) [µg/mL] | M [2] [µg/mL] | MMC, S. aureus (S. aureus 502a [3]) [µg/mL] | ONPG hydrolysis (E. coli ML35 [4]) | MMC, E. coli (E. coli ML35 [5]) [µg/mL] | antimicrobial activity compared with synthetic / native RTD-1 [8] | other results
CC(C)[C@@H]1NC(=O)[C@@H]2CSSC[C@H](NC(=O)[C@H](CCCNC(=N)N)NC(=O)[C@@H](NC(=O)CNC(=O)CN)CSSC[C@@H](C(=O)N[C@@H](CCCNC(=N)N)C(=O)N[C@@H](CCCNC(=N)N)C(N)=O)NC1=O)C(=O)N[C@@H](Cc1ccc(O)cc1)C(=O)N[C@H]1CSSC[C@H](NC(=O)[C@H](Cc3ccccc3)NC(=O)[C@H](CCCNC(=N)N)NC(=O)[C@H](CCCNC(=N)N)NC(=O)[C@H](CCCNC(=N)N)NC1=O)C(=O)N[C@@H](C(C)C)C(=O)N2 [3cys 2:2 PG-1-NH] (H-GGCRCYCRRRFCVCVCRR-NH2; disulfide 3-16, 5-14, 7-12; N-terminus assumed) | 1.5 | 0.25 | 0.3 | 15.3 (A405/sec) · 10^−5 | 1.0 | – | inhibition of β-galactosidase activity ([1]; peptide 0-4 μg/ml, concentration not given, FIG. 10): potent inhibitor; fold higher activity against C. albicans than 3cys 3:1 PG-1-NH (C. albicans 16820; from MMC, Table 2): 2-3 fold; fold higher activity against S. aureus than 3cys 3:1 PG-1-NH (S. aureus 502a [3]; from MMC, Table 2): 6-7 fold
CC(C)C[C@H](NC(=O)[C@@H]1CSSC[C@H](NC(=O)[C@H](CCCNC(=N)N)NC(=O)[C@H](C)NC(=O)[C@@H](NC(=O)CNC(=O)[C@@H](N)CCCNC(=N)N)C(C)C)C(=O)N[C@@H](CC(C)C)C(=O)N[C@H]2CSSC[C@H](NC(=O)[C@H](C(C)C)NC(=O)CNC(=O)[C@H](CCCNC(=N)N)NC(=O)[C@H](CCCNC(=N)N)NC2=O)C(=O)N[C@@H](CCCNC(=N)N)C(=O)N1)C(=O)N[C@@H](C)C(=O)N[C@@H](CCCNC(=N)N)C(N)=O [5:3 aRTD-3-NH] (H-RGVARCLCRRGVCRCLAR-NH2; disulfide 6-15, 8-13; N-terminus assumed) | 2.3 | 1 | 1.0 | 3.9 (A405/sec) · 10^−5 | – | – | effect of divalent cations on bactericidal activity (in words) (E. coli ML35 [6]; various concentrations of divalent cations): completely inhibited; fold lower activity against C. albicans than RTD-3 and PG-1 (C. albicans 16820; from MMC, Table 2): 2-3 fold; inhibition of bactericidal activity in serum (S. aureus 502a [7]): 20-50%; fold lower activity against E. coli than RTD-3 and PG-1 (E. coli ML35 [5]; from MMC, Table 2): 2-3 fold
CC[C@H](C)[C@@H]1NC(=O)[C@@H]2CSSC[C@H](NC(=O)[C@H](CCCNC(=N)N)NC(=O)[C@@H]3CSSC[C@H](NC1=O)C(=O)N[C@@H]([C@@H](C)O)C(=O)N[C@@H](CCCNC(=N)N)C(=O)NCC(=O)N[C@@H](Cc1ccccc1)C(=O)N3)C(=O)N[C@@H]([C@@H](C)CC)C(=O)N[C@H]1CSSC[C@H](NC(=O)[C@H](Cc3ccccc3)NC(=O)CNC(=O)[C@H](CCCNC(=N)N)NC(=O)[C@H]([C@@H](C)O)NC1=O)C(=O)N[C@@H](CCCNC(=N)N)C(=O)N2 [RTD-2] (cyclo(CICTRGFCRCICTRGFCR); disulfide 1-10, 3-8, 12-17) | 3.0 | 1.5 | 1.5 | 6.3 (A405/sec) · 10^−5 | 2.3 | – | reduction of the rate of ONPG hydrolysis by purified β-galactosidase ([1]; 2 μg/ml, relative to incubations without peptide): 80%; reduction of the rate of ONPG hydrolysis on addition of RTD-2 (E. coli ML35 [4]; RTD-2 1.0 μg/ml final added after 30 min to E. coli permeabilized with 1 μg/ml RTD-1, FIG. 11B): approximately 30%
CC[C@H](C)[C@@H]1NC(=O)[C@@H]2CSSC[C@H](NC(=O)[C@H](CCCNC(=N)N)NC(=O)[C@@H](NC(=O)[C@H](Cc3ccccc3)NC(=O)CN)CSSC[C@@H](C(=O)N[C@H](C(=O)N[C@@H](CCCNC(=N)N)C(=O)N[C@@H](CCO)C(=O)O)[C@@H](C)O)NC1=O)C(=O)N[C@@H](CC(C)C)C(=O)N[C@H]1CSSC[C@H](NC(=O)[C@H](C(C)C)NC(=O)CNC(=O)[C@H](CCCNC(=N)N)NC(=O)[C@H](CCCNC(=N)N)NC1=O)C(=O)N[C@@H](CCCNC(=N)N)C(=O)N2 [aRTD-1-Hse] (H-GFCRCLCRRGVCRCICTR[hSer]-OH; disulfide 3-16, 5-14, 7-12 (inferred); N-terminus and C-terminus assumed) | – | – | – | – | – | more antimicrobial than native RTD-1 | –
CC[C@H](C)[C@@H]1NC(=O)[C@@H]2CSSC[C@H](NC(=O)[C@H](CCCNC(=N)N)NC(=O)[C@@H](NC(=O)[C@H](Cc3ccccc3)NC(=O)CN)CSSC[C@@H](C(=O)N[C@H](C(=O)N[C@@H](CCCNC(=N)N)C(=O)O)[C@@H](C)O)NC1=O)C(=O)N[C@@H]([C@@H](C)CC)C(=O)N[C@H]1CSSC[C@H](NC(=O)[C@H](Cc3ccccc3)NC(=O)CNC(=O)[C@H](CCCNC(=N)N)NC(=O)[C@H]([C@@H](C)O)NC1=O)C(=O)N[C@@H](CCCNC(=N)N)C(=O)N2 [aRTD-2-OH] (H-GFCRCICTRGFCRCICTR-OH; disulfide 3-16, 5-14, 7-12; N-terminus assumed) | 3.0 | 1.5 | 1.5 | 4.3 (A405/sec) · 10^−5 | – | – | inhibition of bactericidal activity by calcium chloride (E. coli ML35 [6]; physiologic concentration of calcium chloride (1.4 mM)): completely ablated; effect of salt on microbicidal activity (in words) (S. aureus 502a [9]): most inhibited; 99.9% kill against one of the bacterial organisms ([2]; at 8 μg/ml, the highest concentration tested): did not achieve a 99.9% kill; fold reduction of potency against E. coli versus native cyclic peptide (E. coli ML35 [5]; versus RTD-2): at least 3 fold
CC[C@H](C)[C@@H]1NC(=O)[C@@H]2CSSC[C@H](NC(=O)[C@H](CCCNC(=N)N)NC(=O)[C@@H]3CSSC[C@H](NC1=O)C(=O)N[C@@H]([C@@H](C)O)C(=O)N[C@@H](CCCNC(=N)N)C(=O)NCC(=O)N[C@@H](Cc1ccccc1)C(=O)N3)C(=O)N[C@@H](CC(C)C)C(=O)N[C@H]1CSSC[C@H](NC(=O)[C@H](C(C)C)NC(=O)CNC(=O)[C@H](CCCNC(=N)N)NC(=O)[C@H](CCCNC(=N)N)NC1=O)C(=O)N[C@@H](CCCNC(=N)N)C(=O)N2 [recombinant RTD-1] (cyclo(GFCRCLCRRGVCRCICTR); disulfide 3-16, 5-14, 7-12) | – | – | – | – | – | virtually indistinguishable | –
